Earlier results in US8986935B2, “Methods for treating spinal muscular atrophy” (PTC Therapeutics, Inc., priority 2008, dated 2015).

Test system: SMN protein

Structure (SMILES): CC[C@@]1(O)C[C@H](O[C@H]2C[C@H](N(C)C)[C@H](O[C@H]3C[C@H](O)[C@H](O[C@H]4CCC(=O)[C@H](C)O4)[C@H](C)O3)[C@H](C)O2)c2c(cc3c(c2O)C(=O)c2c(O)cccc2C3=O)[C@H]1C(=O)OC [aclarubicin]
- SMN protein in cell culture: increase SMN protein
